Measured values published in PMC9413201, “Covalent Proteomimetic Inhibitor of the Bacterial FtsQB Divisome Complex” (Journal of the American Chemical Society, 2022).
Read-outs that look alike come from different tables or passages of the source.

Legend:
[1] = molecular target: T1, FtsQ(50–276) (Escherichia coli, UniProt P06136); format: biochemical, E. coli; parameters: pET16b FtsQ(50˗276), a His6 fusion; made in house; host or cells: Escherichia coli BL21 DE3
Procedure: 1.5 Protein modification assay
To determine the reactivity of the different modifiers FtsQ(50˗276) was diluted to a concentration of 100 µM in 20 mM NH4HCO3 buffer (pH 7.6, 150 mM NaCl). The individual peptides were diluted to a concentration of 250 μM in the same buffer. Equal volumes of both solutions were mixed and incubated at 37 °C for the given time period (1 h or 3 h). The reaction was quenched using 5x SDS sample buffer (pH 6.8, 1.875 g TRIS-Cl, 25 mL glycerol, 5 g SDS, 12.5 mL β-mercaptoethanol, 0.5 % bromphenol blue and add 50 mL ddH2O). Samples were heated to 96 °C for 2 min and subsequently analysed by 17 % tris/tricine PAGE (15 min at 90 V and then 3:45 h at 150 V). PageRuler™ Prestained Protein Ladder, 10 to 180 kDa (Thermo Scientific™) was used as a ladder.
Staining was performed using standard Coomassie Staining Solution (40 mL EtOH, 0.3 g Coomassie Blue R250, 0.3 g Coomassie Blue G250, ad 100 mL ddH2O.) and then destained using water.
17 % Tris/Tricine gel (2x):
Running gel: 1.6 mL H2O, 5.5 mL AB-mix, 2.5 mL Buffer A, 100 μL 10% APS, 10 μL 1% TEMED Stacking gel: 2.1 mL H2O, 0.5 mL AB-mix, 0.38 mL Buffer A, 50 μL 10% APS, 5 μL 1% TEMED […]
Buffer A (4x) pH 8.45 3M Tris, 0.3 % SDS; Anode Buffer (10x) pH 8.8, 3M Tris; Cathode buffer (10x) 1M Tris, […]

[2] = test system: E. coli lptD4213 (imp); assay: Growth assay (OD600) with outer membrane-permeable E. coli lptD4213 (imp); format: cell-based; conditions: for Δt1/2 (delay in growth compared to DMSO-treated sample): inhibitor c = 50 μM, MOPS medium, 37 °C
Procedure: Growth assays were performed to assess the in vitro cytotoxicity of peptides. The experiments were executed under sterile conditions. For each assay, 20 mL of fresh MOPS medium was prepared (Teknova Inc MOPS EZ Rich Defined Medium Kit | M2105: 40 mM MOPS, 4 mM Tricine, 0.01 mM FeSO4, 9.5 mM NH4Cl, 0.276 mM […]
MOPS medium with Streptomycin (30 μg/mL) and incubated overnight at 200 rpm and 37°C. The next day, the […]
peptide stocks in DMSO were diluted to four times the desired highest concentration to be measured in MOPS medium. The peptide dilutions were vortexed and briefly centrifuged. 50 μL of MOPS medium was added to each well of a Corning® 96-well Clear Flat Bottom Polystyrene TC-treated Microplate. A twofold dilution series was performed by adding 50 μL of the diluted peptide to the top row, mixing it and taking 50 μL to the next row. At each step the solution was resuspended five times. This was repeated until the last row which was skipped in order to obtain a reference measurement. After 2-3 h, the E.coli lptD4213 (imp) pre-culture was diluted to an OD600 of 0.00005. Then, 50 μL of diluted culture were added to each well and the plate sealed using a lid and parafilm. The OD600 was measured every 15 min over a period of more than 20 h (continuously shaking, 37°C) using a BioTek Synergy H1 plate reader. The obtained data were analyzed and relative growth curves plotted with GraphPad Prism 8. The assays were performed as technical triplicates. A single overnight pre-culture was used to prepare the diluted MOPS culture used in the growth assay. […]

[3] = molecular target: T1, FtsQ(50–276); conditions: tryptic digest, LC-MS/MS
Procedure: μM CaCl2, 50 mM NaCl, traces of (NH4)6Mo7O24, H3BO3, CoCl2, CuSO4, MnCl2 and ZnSO4, 1.32 mM dibasic anhydrous […], 0.20% glucose, 1.5 mM KOH, 0.199 mM adenine, cytosine, uracil and guanine and 0.01 mM to 10 mM amino acids). A preculture of E.coli lptD4213 (imp) was prepared in 5 mL MOPS medium with streptomycin (30 μg/mL), which was grown overnight at 200 rpm and 37°C. The next day, the overnight culture was diluted a thousandfold and grown up to an OD600 of about 0.5 at 200 rpm and 37°C. After 2-3h, the culture was diluted to an OD600 of 0.1. 10 mM peptide stocks in DMSO were subsequently diluted to 200 μM in MOPS medium. For measuring two time points, a total volume of 110 μL peptide dilution was prepared, for 3 timepoints this was 160 μL. For each time point, 50 μL of diluted peptide was added into an Eppendorf tube, to which 50 μL diluted culture was added (final peptide concentration: 100 μM, starting OD600 = 0.05). The tubes were incubated for either 1,3 or 6 h at 200 rpm and 37°C. Then the cells were fixed using 8.3 μL 37% formaldehyde solution in H2O and incubated for 5 min at 200 rpm and 37°C. Subsequently, the mixture was centrifuged at 500 rpm for 5 min, after which the supernatant was discarded. The pellets were redissolved in 7.5 μL PBS buffer and stored at […]
Microscopy slides were prepared by melting 1% Nobel Agarose in MiliQ water in a microwave. 800 μL was dispersed over a well slide, a microscopy slide was put on top and air bubbles were removed. The agar was allowed to cool for 15 min, after which the microscopy slide was removed. The frozen samples were thawed and 3 μL of each sample was added to separate wells, after which a covering glass was put on top. Using an Olympus IX83 microscope with 100 times magnification ocular and phase contrast (halogen lamp wat approximately 7V), the morphology of the cells was investigated. Pictures were taken and subsequently analyzed with ImageJ and the ObjectJ Cell Counter (https://sils.fnwi.uva.nl/bcb/objectj/examples/CellCounter/cellcounter-md/cellcounter.html, accessed on February 2020).
For the MS/MS experiment samples were prepared as follows. The FtsQ(50˗276) stock solution was diluted to 100 μM and the stock of peptide 24fα was diluted to 250 μM with previously used binding buffer (20 mM NH4HCO3 (pH 7.6), 150 mM NaCl). 10 μL of each diluted stock were merged and the resulting mixture incubated over night at 37 °C. Then the samples were mixed with 5x SDS Sample buffer and 2.5 μL/lane loaded on to a 17% tris/tricine PAGE. The gel was run for 15 min at 90 V and 2h at 150 V.
A container of glass was prepared and extensively washed with soda and water. The gel was placed in the container and incubated in fixing solution (50% EtOH, 3% H3PO4) overnight to remove SDS. The next day, the fixing solution was removed and the gel washed with water a couple of times. Colloidal Coomassie staining solution (34% MeOH, 3 % H3PO4, 150 g (NH4)2SO4/L, 1 g/L G250) was added and the gel stained for 2 d. Then the gel was washed 3x for 30 min with water. Then the bands corresponding to modified and unmodified FtsQ were cut out (1 mm3 pieces) from the gel and transferred to original Eppendorf tubes. The gel pieces were washed with 200 μL water by vortex mixing for 30 s. Then the water was discarded. The gel pieces were then washed with 200 μL MeOH:50 mM NH4HCO3 (1:1 v/v) for 1 min with intermittent vortex mixing. The supernatant was discarded and the procedure repeated once. Then the gel pieces were dehydrated for 5 min in 200 μL of ACN: 50 mM NH4HCO3 (1:1 v/v) with intermittent vortex mixing. The supernatants were discarded and 200 μL of 100 % ACN added, mixed and incubated for 30 s. The samples were dried in a SpeedVac (appr. 5 min). They were then […]
rehydrated in 20 μL of 12 ng/μL Trypsin in 0.01% ProteaseMAX surfactant (Promega): 50 mM NH4HCO3 (Trypsin gold stock 1 μg/μl from Promega, high thermostability) for 10 min (2 μL to 200 μL) and overlayed with […]

[4] = test system: FtsB-mNG localization in E. coli lptD4213 (imp); assay: Localization of FtsB-mNG (fluorescence microscopy); format: cell-based; conditions: peptide c = 100 μM, 60 min after addition, MOPS rich medium, 37 °C
Procedure: were incubated for 1 h at 50 °C. The condensates were collected by centrifuging for 10 s. The digests were mixed for a few seconds and transferred to another tube. 0.5 % TFA was added to inactivate trypsin. The samples were […]
E.coli mutant lptD4213 (imp)
MOPS: MOPS EZ Rich Defined Medium Kit M2105 (Teknova).
At the end of the day, the cells
The next day, the cells were grown and diluted […]
objective. […] In all experiments, the cells […]
ex470/40, dic495LP, em525/50).

[5] = OD600 every 15 min over 22 h, n = 3 technical replicates

T1 sequence (P06136 50-276): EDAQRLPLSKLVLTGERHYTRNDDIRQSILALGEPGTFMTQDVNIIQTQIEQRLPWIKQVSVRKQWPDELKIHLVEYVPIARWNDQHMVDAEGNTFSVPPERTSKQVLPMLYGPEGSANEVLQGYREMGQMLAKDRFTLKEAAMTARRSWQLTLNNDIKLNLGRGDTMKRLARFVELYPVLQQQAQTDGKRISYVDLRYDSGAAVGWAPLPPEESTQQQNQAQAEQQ

**Q.** For “QEALEERA6NELSBTRPG6mFYRL (sidechain bridge or staple) [24fγ, vinylsulfon-modified macrocyclic 24f, N-acetylated]”, which “specificity of FtsQ(50–276) modification (number of up-shifted bands)” value [1] is on record?
**A.** multiple up-shifted bands

**Q.** And the “covalent labeling of FtsQ(50–276) (up-shifted band)” value ([1]; pH 7.6)?
**A.** showed labeling of FtsQ(50–276)

**Q.** For “A6NELSBTRPG6mFYRL (sidechain bridge or staple) [17fδ, dichlorotriazin-modified 17-mer macrocyclic scaffold]”, which “Δt1/2 (delay in growth compared to DMSO-treated sample)” value [2, 5] is on record?
**A.** 5.7 h

**Q.** How did the “Δt1/2 (delay in growth compared to DMSO-treated sample)” value [2, 5] turn out when “QEALEERA6NELSBTRPG6mFYRL (sidechain bridge or staple) [24fα]” was run?
**A.** 3.6 h

**Q.** What about the “count ratio 24fα-modified / unmodified FtsQ, ID 2 HYTRNDDIR” value [3] of the same substance?
**A.** 1.60

**Q.** And the “count ratio 24fα-modified / unmodified FtsQ, ID 3 […](*)” value [3]?
**A.** 0.43

**Q.** And the “count ratio 24fα-modified / unmodified FtsQ, ID 4 K/QWPDELK/[…]” value [3]?
**A.** 1.01

**Q.** And the “count ratio 24fα-modified / unmodified FtsQ, ID 5 […](*)” value [3]?
**A.** 1.20

**Q.** And the “count ratio 24fα-modified / unmodified FtsQ, ID 6 […]/EMGQMLAK(*)” value [3]?
**A.** 1.00

**Q.** And the “count ratio 24fα-modified / unmodified FtsQ, ID 7 DRFTLK” value [3]?
**A.** 1.03

**Q.** And the “count ratio 24fα-modified / unmodified FtsQ, ID 8 EAAMTAR*” value [3]?
**A.** 0.62

**Q.** And the “count ratio 24fα-modified / unmodified FtsQ, ID 9 R/[…] (contains K208)” value [3]?
**A.** 1.13

**Q.** And the “count ratio 24fα-modified / unmodified FtsQ, ID 10 LNLGR/GDTMK/R (contains K218)” value [3]?
**A.** 0.56

**Q.** What about the “count ratio 24fα-modified / unmodified FtsQ, ID 11 […]/R (contains K239)” value [3] of the same substance?
**A.** 0.20

**Q.** What about the “count ratio 24fα-modified / unmodified FtsQ, ID 12 ISYVDLR” value [3] of the same substance?
**A.** 1.24

**Q.** And the “count ratio 24fα-modified / unmodified FtsQ, ID 13 […]” value [3]?
**A.** 2.47

**Q.** What about the “count ratio 24fα-modified / unmodified FtsQ, ID 1 LVLTGER” value ([3]; peptide 125 μM + FtsQ 50 μM overnight 37 °C) of the same substance?
**A.** 1.17

**Q.** What about the “covalent labeling of FtsQ(50–276) (up-shifted band)” value ([1]; peptide 125 μM, FtsQ(50–276) 50 μM, 20 mM NH4HCO3 pH 7.6, 150 mM NaCl, 37 °C, 1 or 3 h) of the same substance?
**A.** showed labeling of FtsQ(50–276)

**Q.** “QEALEERA6NELSBTRPG6mFYRL (sidechain bridge or staple) [24fβ]” was tested. Which “Δt1/2 (delay in growth compared to DMSO-treated sample)” value [2, 5] did it give?
**A.** 1.7 h

**Q.** And the “covalent labeling of FtsQ(50–276) (up-shifted band)” value ([1]; pH 7.6)?
**A.** showed labeling of FtsQ(50–276)

**Q.** Which results are given for “A6NELSBTRPG6mFY (sidechain bridge or staple) [15fα, 24fα lacking seven N-terminal and two C-terminal amino acids; negative control peptide]”?
**A.** lowest concentration with inhibitory effect on growth ([2]; concentration-dependent effect on growth after 15 h, highest tested concentration 100 μM, n = 3 replicates): > 100 µM; inhibitory activity on bacterial growth (OD600) ([2]; inhibitor c = 25 μM, OD600 every 15 min over 22 h, n = 3 technical replicates): did not exhibit inhibitory activity; FtsB-mNG midcell localization [4]: regular accumulation of FtsB-mNG at the midcell

**Q.** What does the source list for “QEALEERA6NELSBTRPG6mFYRL (sidechain bridge or staple) [24fδ]”?
**A.** Δt1/2 (delay in growth compared to DMSO-treated sample) [2, 5]: 4.1 h; covalent labeling of FtsQ(50–276) (up-shifted band) ([1]; pH 7.6): showed labeling of FtsQ(50–276)

**Q.** Which “Δt1/2 (delay in growth compared to DMSO-treated sample)” value [2, 5] does the source give for “A6NELSBTRPG6mFYRL (sidechain bridge or staple) [17fγ, vinyl sulfone-modified 17-mer macrocyclic scaffold]” here?
**A.** 4.5 h

**Q.** What about the “specificity of FtsQ(50–276) modification (number of up-shifted bands)” value [1] of the same substance?
**A.** two up-shifted bands
